# In US10538532B2, “Hepatitis B antiviral agents” (ENANTA PHARMACEUTICALS, INC., priority 2016, dated 2020):
# pEC50: −log10 of the molar value. Where two headings read alike, the source gives them in different places.
# What was measured:
# HBV = assay: HepAD38 antiviral assay: reduction of viral product accumulation (virion DNA by qPCR, HBsAg or HBeAg by ELISA); assay type: cell-based, hepatitis B virus; conditions: HepAD38 cells, five days after compound addition, concentration reducing viral product accumulation by 50% relative to no drug controls, read-out: HepAD38 EC50
# Outline: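 HepAD38 cells were washed free of tetracycline, plated at 35,000 cells/well and given compounds diluted 1:200 from DMSO. After 5 days, or 8 days with media and compound refreshed on d2 and d5, virion DNA was measured by qPCR and HBsAg or HBeAg by ELISA. EC50 is the concentration giving 50% reduction of viral product versus no-drug controls.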
# [1] = Compound toxicity, ATPLite total ATP levels; assay type: cell-based; conditions: human, HepAD38 cells, three days after compound addition, concentration reducing total ATP levels by 50% relative to no drug controls
# Method: Methods: HepAD38 cells are maintained as previously reported (Ladner et al, Antimicrob. Agents Chemother. 1997, […], 1715). Briefly, cells are passaged upon attaining confluency in DMEM/F12 media in the presence of 10% FBS, Penn/Strep, 250 μg/mL G418, and 1 ug/ml tetracycline. Novel compounds are screened by first washing cells three times with PBS to remove tetracycline, and plating in 96 well plates at 35,000 cells/well. Compounds dissolved in DMSO are then diluted 1:200 into wells containing cells. Five days after compound addition, material is harvested for analysis. For an extended 8 day analysis, cells are plated and treated as described above, but media and compound are refreshed on d2 and d5 post initial treatment.
# Compound toxicity is evaluated by seeding cells at 15,000 cells/well and treating with compound as described above.
# [2] = Hepatitis B virus, HePAD38, 120 h
SMILES,pEC50 (HBV; [2]),CC50 at 3 days ([1]; class symbols),CC50 at 3 days ([1]; numeric bounds),pEC50 (HBV)
O=C1NC[C@]2(CC3CC[C@@H](C2)[C@H]3S(=O)(=O)c2cc(C(=O)Nc3cc(F)c(F)c(F)c3)ccc2Cl)O1 [Example 285],6.40 to 7.00,> 25 µM,,
[N-]=[N+]=NC[C@]1(O)CC2CC[C@@H](C1)[C@H]2S(=O)(=O)c1cc(C(=O)Nc2cc(F)c(F)c(F)c2)ccc1Cl [Example 286],> 7.00,10 to 25 µM,,
[N-]=[N+]=N[C@]1(CO)CC2CC[C@@H](C1)[C@H]2S(=O)(=O)c1cc(C(=O)Nc2cc(F)c(F)c(F)c2)ccc1Cl [Example 287],6.40 to 7.00,> 25 µM,,
COC(=O)N[C@H](C(=O)NC[C@@]1(O)CC2CC[C@@H](C1)[C@H]2S(=O)(=O)c1cc(C(=O)Nc2cc(F)c(F)c(F)c2)ccc1Cl)C(C)C [Example 288],6.40 to 7.00,10 to 25 µM,,
COC(=O)N1C[C@]2(CC3CC[C@@H](C2)[C@H]3S(=O)(=O)c2cc(C(=O)Nc3cc(F)c(F)c(F)c3)ccc2Cl)OC1=O [Example 289],6.40 to 7.00,,> 12.5 µM,
C=CCOC(=O)OC[C@]1(O)CC2CC[C@@H](C1)[C@H]2S(=O)(=O)c1cc(C(=O)Nc2cc(F)c(F)c(F)c2)ccc1Cl [Example 290],> 7.00,> 25 µM,,
N#CC[C@]1(O)CC2CC[C@@H](C1)[C@H]2S(=O)(=O)c1cc(C(=O)Nc2cc(F)c(F)c(F)c2)ccc1Cl [Example 291],> 7.00,10 to 25 µM,,
N#C[C@]1(CO)CC2CC[C@@H](C1)[C@H]2S(=O)(=O)c1cc(C(=O)Nc2cc(F)c(F)c(F)c2)ccc1Cl [Example 292],> 7.00,10 to 25 µM,,
CS(=O)(=O)OC[C@@H]1CC2CC[C@@H](C1)[C@H]2S(=O)(=O)c1cc(C(=O)Nc2cc(F)c(F)c(F)c2)ccc1Cl [Example 293],> 7.00,,> 6.25 µM,
O=C(Nc1cc(F)c(F)c(F)c1)c1ccc(Cl)c(S(=O)(=O)[C@H]2CC3CCC(C2)[C@]3(O)CNS(=O)(=O)C2CC2)c1 [Example 294],> 7.00,,> 6.25 µM,
O=C(Nc1cc(F)c(F)c(F)c1)c1ccc(Cl)c(S(=O)(=O)[C@H]2CC3CCC(C2)[C@]3(O)CNS(=O)(=O)c2cccnc2)c1 [Example 295],> 7.00,,> 12.5 µM,
O=C(Nc1cc(F)c(F)c(F)c1)c1ccc(Cl)c(S(=O)(=O)[C@H]2CC3CCC(C2)[C@]3(O)CNS(=O)(=O)c2ccccn2)c1 [Example 296],> 7.00,,> 6.25 µM,
CC(C)(C)OC(=O)NC1CC2CC[C@@H](C1)[C@H]2S(=O)(=O)c1cc(C(=O)Nc2cc(F)c(F)c(F)c2)ccc1Cl (stereo partly drawn) [Example 297],> 7.00,,> 6.25 µM,
NC1CC2CC[C@@H](C1)[C@H]2S(=O)(=O)c1cc(C(=O)Nc2cc(F)c(F)c(F)c2)ccc1Cl (stereo partly drawn) [Example 298],6.40 to 7.00,10 to 25 µM,,
CS(=O)(=O)NC1CC2CC[C@@H](C1)[C@H]2S(=O)(=O)c1cc(C(=O)Nc2cc(F)c(F)c(F)c2)ccc1Cl (stereo partly drawn) [Example 299],> 7.00,> 25 µM,,
COC(=O)N[C@@H](C(=O)NC1CC2CC[C@@H](C1)[C@H]2S(=O)(=O)c1cc(C(=O)Nc2cc(F)c(F)c(F)c2)ccc1Cl)C(C)C (stereo partly drawn) [Example 300],> 7.00,,> 6.25 µM,
O=C(Nc1cc(F)c(F)c(F)c1)c1ccc(Cl)c(S(=O)(=O)[C@H]2CC3CCC(C2)[C@@]3(O)c2nccs2)c1 [Example 301],< 6.40,10 to 25 µM,,
O=C(Nc1cc(F)c(F)c(F)c1)c1ccc(Cl)c(S(=O)(=O)[C@H]2CC3CCC(C2)[C@]3(O)c2ncc[nH]2)c1 [Example 302],> 7.00,10 to 25 µM,,

SMILES,pEC50 (HBV; [2]),CC50 at 3 days ([1]; class symbols),CC50 at 3 days ([1]; numeric bounds),pEC50 (HBV)
O=C(Nc1cc(F)c(F)c(F)c1)c1ccc(Cl)c(S(=O)(=O)[C@H]2CC3CCC(C2)[C@H]3c2ncc[nH]2)c1 [Example 303],> 7.00,< 10 µM,,
[N-]=[N+]=NC[C@@H]1CC2CC[C@@H](C1)[C@H]2S(=O)(=O)c1cc(C(=O)Nc2cc(F)c(F)c(F)c2)ccc1Cl [Example 304],6.40 to 7.00,,> 6.25 µM,
O=C1NC[C@@]2(CC3CC[C@@H](C2)[C@H]3S(=O)(=O)c2cc(C(=O)Nc3cc(F)c(F)c(F)c3)ccc2Cl)O1 [Example 306],> 7.00,,> 12.5 µM,
CS(=O)(=O)NC[C@]1(O)CC2CC[C@@H](C1)[C@H]2S(=O)(=O)c1cc(C(=O)Nc2cc(F)c(F)c(F)c2)ccc1Cl [Example 307],> 7.00,> 25 µM,,
O=C(Nc1cc(F)c(F)c(F)c1)c1ccc(Cl)c(S(=O)(=O)[C@H]2CC3CCC(C2)[C@]3(O)c2ccccn2)c1 [Example 308],> 7.00,> 25 µM,,
COC(=O)N[C@H]1C2CCC1C[C@@H](S(=O)(=O)c1cc(C(=O)Nc3cc(F)c(F)c(F)c3)ccc1Cl)C2 [Example 309],> 7.00,> 25 µM,,
CS(=O)(=O)N[C@@H]1C2CC[C@H]1C[C@H](S(=O)(=O)c1cc(C(=O)Nc3cc(F)c(F)c(F)c3)ccc1Cl)C2 [Example 310],> 7.00,> 25 µM,,
O=C(Nc1cc(F)c(F)c(F)c1)c1ccc(Cl)c(S(=O)(=O)[C@H]2C3CC[C@H]2C[C@H](Cn2ccnc2)C3)c1 [Example 312],> 7.00,10 to 25 µM,,
O=C(Nc1cc(F)c(F)c(F)c1)c1ccc(Cl)c(S(=O)(=O)[C@H]2C3CC[C@H]2C[C@](O)(Cn2cccn2)C3)c1 [Example 313],> 7.00,,> 6.25 µM,
O=C(Nc1cc(F)c(F)c(F)c1)c1ccc(Cl)c(S(=O)(=O)[C@H]2C3CC[C@H]2C[C@](O)(COCc2ccccn2)C3)c1 [Example 317],> 7.00,< 10 µM,,
O=C(Nc1cc(F)c(F)c(F)c1)c1ccc(Cl)c(S(=O)(=O)[C@H]2C3CC[C@H]2C[C@](O)(COCCO)C3)c1 [Example 319],> 7.00,> 25 µM,,
COC(=O)NC1CC2CC[C@@H](C1)[C@H]2S(=O)(=O)c1cc(C(=O)Nc2cc(F)c(F)c(F)c2)ccc1Cl (stereo partly drawn) [Example 321],> 7.00,> 25 µM,,
O=C(Nc1cc(F)c(F)c(F)c1)c1ccc(Cl)c(S(=O)(=O)[C@H]2CC3CCC(C2)[C@]3(O)c2nccs2)c1 [Example 322],> 7.00,10 to 25 µM,,
O=C(Nc1cc(F)c(F)c(F)c1)c1ccc(Cl)c(S(=O)(=O)[C@H]2CC3CCC(C2)[C@]3(O)CO)c1 [Example 324],,,> 12.5 µM,> 7.00
Cn1ccnc1[C@]1(O)CC2CC[C@@H](C1)[C@H]2S(=O)(=O)c1cc(C(=O)Nc2cc(F)c(F)c(F)c2)ccc1Cl [Example 329],> 7.00,,> 6.25 µM,
O=C(Nc1cc(F)c(F)c(F)c1)c1ccc(Cl)c(S(=O)(=O)[C@H]2C3CC[C@H]2C[C@](O)(c2ncc(-c4ccccc4)[nH]2)C3)c1 [Example 330],> 7.00,< 10 µM,,
O=C(Nc1cc(F)c(F)c(F)c1)c1ccc(Cl)c(S(=O)(=O)[C@H]2CC3CCC(C2)[C@]3(O)c2cccnc2)c1 [Example 331],> 7.00,10 to 25 µM,,
O=C(Nc1cc(F)c(F)c(F)c1)c1ccc(Cl)c(S(=O)(=O)[C@H]2CC3CCC(C2)[C@]3(O)c2ccncc2)c1 [Example 332],> 7.00,10 to 25 µM,,
